The results in this text go back to US11142515B2, “Pyrazolyl-ureas as kinase inhibitors” (RESPIVERT LIMITED, priority 2014, dated 2021).

Test [1] concerns the target T1, c-Src (Homo sapiens, UniProt P12931).
T1 construct: purchased Life Technologies
In words: c-Src enzyme inhibition (Z-LYTE FRET). It is filed as biochemical. Particulars: Table 2A. The procedure:
The enzyme inhibitory activities of compounds disclosed herein were determined by FRET using synthetic peptides labelled with both donor and acceptor fluorophores (Z-LYTE, Life Technologies, Paisley, UK).
The relevant enzyme (1000 ng/mL, 1400 ng/mL or 2000 ng/mL respectively, 2.5 μL) was incubated with the test compound (either 40 μg/mL, 12 μg/mL, 4 μg/mL, 1.2 μg/mL, 0.4 μg/mL, 0.12 μg/mL, 0.04 μg/mL, 0.012 μg/mL, 0.004 μg/mL or 0.0012 μg/mL, 2.5 μL each) for 2 h at RT. The FRET peptides (8 μM, 2.5 μL), and appropriate ATP solutions (2.5 μL, 800 μM for c-Src, and 60 μM ATP for HCK and Syk) were then added to the enzyme/compound mixtures and incubated for 1 h at RT. Development reagent (protease, 5 μL) was added for 1 h prior to detection in a fluorescence microplate reader (EnVision, Perkin Elmer).
In all cases, the site-specific protease cleaves non-phosphorylated peptide only and eliminates the FRET signal. Phosphorylation levels of each reaction were calculated using the ratio of coumarin emission (donor) over fluorescein emission (acceptor), for which low ratios indicate high phosphorylation and high ratios indicate low phosphorylation levels.

The target in test [2] is T2, p38MAPKγ (MAPK12) (Homo sapiens, UniProt P53778).
T2 construct: purchased Life Technologies
T2 sequence (P53778 1-367): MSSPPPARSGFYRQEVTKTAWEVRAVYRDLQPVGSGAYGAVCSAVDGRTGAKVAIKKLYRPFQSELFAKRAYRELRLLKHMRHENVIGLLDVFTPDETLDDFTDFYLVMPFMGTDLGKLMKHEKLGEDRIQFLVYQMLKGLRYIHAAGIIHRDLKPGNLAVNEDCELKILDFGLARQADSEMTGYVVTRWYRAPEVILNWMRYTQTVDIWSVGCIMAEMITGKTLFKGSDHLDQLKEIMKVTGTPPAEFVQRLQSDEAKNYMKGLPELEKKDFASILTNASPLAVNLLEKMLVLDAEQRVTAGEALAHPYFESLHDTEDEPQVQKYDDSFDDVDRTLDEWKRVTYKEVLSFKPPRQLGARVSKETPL
The test is described as follows: p38 MAPKγ enzyme inhibition (Z-LYTE FRET). It counts as biochemical. As to conditions: Table 2A; read-out: IC50 Values for Enzyme Inhibition p38 MAPKγ. The essentials: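 Enzyme (added at 800 ng/mL) was preincubated 2 h at RT with compound (solutions of 40 to 0.0012 μg/mL), then FRET peptide (8 μM) and ATP (400 μM), both as added, were reacted 1 h at RT. Protease development followed for 1 h; phosphorylation was read as the coumarin/fluorescein emission ratio.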

Test [3] has as its system ICAM-1 expression in BEAS2B cells. The test is described as follows: Poly I:C-induced ICAM-1 expression in BEAS2B cells. It counts as cell-based. Particulars: Homo sapiens, BEAS-2B, read-out: PolyIC/ICAM1 IC50 (BEAS2B). The procedure: Poly I:C was used in these studies as a simple, RNA virus mimic. Poly I:C-Oligofectamine mixture (2% Oligofectamine±1 μg/mL Poly I:C, 25 μL; Life Technologies and Invivogen Ltd., San Diego, Calif., respectively) was transfected into BEAS2B cells (human bronchial epithelial cells, ATCC). Cells were pre-incubated with final concentrations of test compounds for 2 h and the level of ICAM-1 expression on the cell surface was determined by cell-based ELISA. At a time point 18 h after poly I:C transfection, cells were fixed with 4% formaldehyde in PBS (100 μL) and then endogenous peroxidase was quenched by the addition of washing buffer (100 μL, 0.05% Tween in PBS: PBS-Tween) containing 0.1% sodium azide and 1% hydrogen peroxide. Cells were washed with wash-buffer (3×200 μL). After blocking the wells with 5% milk in PBS-Tween (100 μL) for 1 h, the cells were incubated with anti-human ICAM-1 antibody (50 μL; Cell Signaling Technology, Danvers, Mass.) in 1% BSA PBS overnight at 4° C.
The cells were washed with PBS-Tween (3×200 μL) and incubated with the secondary antibody (100 μL; HRP-conjugated anti-rabbit IgG, Dako Ltd., Glostrup, Denmark). The cells were then incubated with of substrate (50 μL) for 2-20 min, followed by the addition of stop solution (50 μL, 1N H2SO4). The ICAM-1 signal was detected by reading the absorbance at 450 nm against a reference wavelength of 655 nm using a spectrophotometer. The cells ware then washed with PBS-Tween (3×200 μL) and total cell numbers in each well were determined by reading absorbance at 595 nm after Crystal Violet staining (50 μL of a 2% solution in PBS) and elution by 1% SDS solution (100 μL) in PBS. The measured OD 450-655 readings were corrected for cell number by dividing with the OD595 reading in each well. The inhibition of ICAM-1 expression was calculated at each concentration of test compound by comparison with vehicle control.

Test [4] has as its system TNFα release in d-U937 cells. The test is described as follows: LPS-induced TNFα release in d-U937 cells. Further: relative to 10 µg/mL BIRB-796. It is filed as cell-based. As to conditions: Homo sapiens, dU937; read-out: LPS Induced Release TNFα REC50 (dU937). The procedure:
U937 cells, a human monocytic cell line, were differentiated into macrophage-type cells by incubation with PMA (100-200 ng/mL) for 48 to 72 h. Cells were pre-incubated with final […] concentrations of test compound for 2 h and were then stimulated with LPS (0.1 μg/mL; from E. coli: O111:B4, Sigma) for 4 h. The supernatant was collected for determination of TNFα and IL-8 concentrations by sandwich ELISA (Duo-set, R&D systems). […] The relative 50% effective concentration (REC50) was determined from the resultant concentration-response curve. The inhibition of IL-8 production was calculated at each concentration of test compound by comparison with vehicle control.

The structures appear in SMILES notation.

T1 sequence (P12931 whole entry): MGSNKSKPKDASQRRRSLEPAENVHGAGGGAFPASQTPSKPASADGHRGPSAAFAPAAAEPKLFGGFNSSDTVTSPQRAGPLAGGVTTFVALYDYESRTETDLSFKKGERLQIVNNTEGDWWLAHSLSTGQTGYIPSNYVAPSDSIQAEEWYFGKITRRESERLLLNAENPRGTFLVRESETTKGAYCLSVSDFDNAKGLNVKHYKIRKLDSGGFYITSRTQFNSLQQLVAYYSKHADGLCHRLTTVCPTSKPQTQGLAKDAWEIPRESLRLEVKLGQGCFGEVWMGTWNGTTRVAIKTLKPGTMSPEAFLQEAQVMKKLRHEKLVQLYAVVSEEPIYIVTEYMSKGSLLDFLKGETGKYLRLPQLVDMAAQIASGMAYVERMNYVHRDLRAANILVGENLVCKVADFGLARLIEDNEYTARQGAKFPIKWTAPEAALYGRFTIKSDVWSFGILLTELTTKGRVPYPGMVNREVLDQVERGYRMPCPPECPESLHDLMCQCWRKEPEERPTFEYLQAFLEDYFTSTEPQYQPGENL

Consider `CC(=O)NCc1cnc(Nc2cc(COc3ccc(NC(=O)Nc4cc(C(C)(C)C)nn4-c4ccc(C)cc4)c4ccccc34)ccn2)cn1` [Example 6, N-((5-((4-(((4-(3-(3-(tert-butyl)-1-(p-tolyl)-1H-pyrazol-5-yl)ureido)naphthalen-1-yl)oxy)methyl)pyridin-2-yl)amino)pyrazin-2-yl)methyl)acetamide], for which the IC50 in test [1] was 24 nM; in test [2], 37 nM; in test [3], 52.4 nM. The EC50 in test [4] worked out at 8.5 nM.
As to `Cc1ccc(-n2nc(C(C)(C)C)cc2NC(=O)Nc2ccc(OCc3ccnc(Nc4cnccn4)c3)c3ccccc23)cc1C` [Example 51], the IC50 in test [1] is 160 nM; in test [2], 171 nM; in test [3], 281 nM. The EC50 in test [4] is 2.2 nM.
Take `Cc1ccc(-n2nc(C(C)(C)C)cc2NC(=O)Nc2ccc(OCc3ccnc(Nc4cnc(C(=O)N5CCOCC5)cn4)c3)c3ccccc23)cc1` [Example 35]: the IC50 came to 51 nM in test [1], 171 nM in test [2] and 113 nM in test [3]. Moreover, the EC50 in test [4] was found to be 12.1 nM.
`Cc1ccc(-n2nc(C(C)(C)C)cc2NC(=O)Nc2ccc(OCc3ccnc(Nc4cnc(C)cn4)c3)c3ccccc23)cc1` [Example 19]: the results for the IC50 in test [1], in test [2] and in test [3] were 151 nM, 229 nM and 340 nM, respectively. The EC50 in test [4] worked out at 13.2 nM.
Take `Cc1ccc(-n2nc(C(C)(C)C)cc2NC(=O)Nc2ccc(OCc3ccnc(Nc4cnccn4)c3)c3ccccc23)s1` [Example 13]: the IC50 in test [1] is 129 nM; in test [2], 63 nM; in test [3], 556 nM. In addition, the EC50 in test [4] amounted to 18.2 nM.
In the same order, the values of `COc1ccc(-n2nc(C(C)(C)C)cc2NC(=O)Nc2ccc(OCc3ccnc(Nc4cnc(CO)cn4)c3)c3ccccc23)cc1` [Example 23] are 33 nM, 209 nM, 33.5 nM and 3.1 nM.
As for `COc1ccc(-n2nc(C(C)(C)C)cc2NC(=O)Nc2ccc(OCc3ccnc(Nc4cnccn4)c3)c3ccccc23)cc1Cl` [Example 46], the IC50 stood at 385 nM in test [1], 1950 nM in test [2] and 212 nM in test [3]. For the same compound, the EC50 in test [4] came out at 0.7 nM.
Take `Cc1ccc(-n2nc(C(C)(C)C)cc2NC(=O)Nc2ccc(OCc3ccnc(Nc4cncc(CO)n4)c3)c3ccccc23)cc1` [Example 21]: the IC50 in test [1] worked out at 33 nM; in test [2], 31 nM; in test [3] it was 76.5 nM. Besides, in test [4], the EC50 was 0.6 nM.
For the compound `CCc1ccc(-n2nc(C(C)(C)C)cc2NC(=O)Nc2ccc(OCc3ccnc(Nc4cnccn4)c3)c3ccccc23)cc1` [Example 42], the IC50 in test [1] worked out at 543 nM; in test [2] it was 521 nM; in test [3], 197 nM. In test [4], the EC50 turned out to be 4.3 nM.
With `COCCNC(=O)c1cnc(Nc2cc(COc3ccc(NC(=O)Nc4cc(C(C)(C)C)nn4-c4ccc(C)s4)c4ccccc34)ccn2)cn1` [Example 43], the results for the IC50 in test [1], in test [2] and in test [3] were 73 nM, 394 nM and more than 1420 nM, respectively. In addition, in test [4], the EC50 came to 16.8 nM.
In the case of `Cc1ccc(-n2nc(C(C)(C)C)cc2NC(=O)Nc2ccc(OCc3ccnc(Nc4cnc(C(=O)NCCN5CCOCC5)cn4)c3)c3ccccc23)cc1` [Example 17], the IC50 in test [1] was 34 nM; in test [2] it was 74 nM; in test [3], 433 nM. For the same compound, in test [4], the EC50 stood at 12.7 nM.
As for `Cc1ccc(-n2nc(C(C)(C)C)cc2NC(=O)Nc2ccc(OCc3ccnc(Nc4cncc(CC(=O)N(C)C)n4)c3)c3ccccc23)cc1` [Example 8, 2-(6-((4-(((4-(3-(3-(tert-butyl)-1-(p-tolyl)-1H-pyrazol-5-yl)ureido)naphthalen-1-yl)oxy)methyl)pyridin-2-yl)amino)pyrazin-2-yl)-N,N-dimethylacetamide], the IC50 in test [1] worked out at 32 nM; in test [2], 43 nM; in test [3], 31.5 nM. Moreover, in test [4], the EC50 was 3.9 nM.
`Cc1ccc(-n2nc(C(C)(C)C)cc2NC(=O)Nc2ccc(OCc3ccnc(Nc4cncc(C)n4)c3)c3ccccc23)cc1` [Example 20]: the IC50 worked out at 150 nM in test [1], 62 nM in test [2] and 152 nM in test [3]. Moreover, in test [4], the EC50 was 1.3 nM.
